Our source for the IC50 values is patent publication US20230373989A1, “N-PHENYLAMINOCARBONYL PYRIDINO-, PYRIMIDINO AND BENZO-TROPANES AS MODULATORS OF GPR65” (PATHIOS THERAPEUTICS LIMITED, priority 2020, published 2023).

SMILES strings stand for the structures. Read-outs that look alike come from different tables or passages of the source.

For the experiment, the target named is T1, human recombinant GPR65 (Homo sapiens, UniProt Q8IYL9).
T1 construct: host or cells: 1321N1 human astrocytoma cells (1321N1-hrGPR65)
T1 sequence (Q8IYL9 whole entry): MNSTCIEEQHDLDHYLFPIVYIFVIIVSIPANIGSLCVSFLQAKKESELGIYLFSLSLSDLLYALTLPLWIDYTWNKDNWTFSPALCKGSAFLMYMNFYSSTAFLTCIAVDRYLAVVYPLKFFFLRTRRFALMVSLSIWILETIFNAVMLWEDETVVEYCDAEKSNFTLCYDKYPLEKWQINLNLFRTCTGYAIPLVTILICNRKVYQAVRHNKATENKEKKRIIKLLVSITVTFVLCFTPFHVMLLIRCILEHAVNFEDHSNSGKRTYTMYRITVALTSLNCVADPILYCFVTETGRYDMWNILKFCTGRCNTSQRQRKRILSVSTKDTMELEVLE
Nature of the experiment: Human GPR65 cAMP HTRF antagonist assay. In kind it is cell-based. An excerpt: In one preferred embodiment, the compound prevents the increase in cytoplasmic cAMP levels expected following GPR65 activation at acidic pH. This prevention of cAMP accumulation in turn prevents downstream signalling through ICER, as described above. The “Human GPR65 cyclic adenosine monophosphate (cAMP) Homogeneous Time Resolved Fluorescence (HTRF) antagonist assay”, or simply “cAMP assay”, as described in the accompanying examples, can be used to measure the potency of GPR65 modulators, which is expressed as the concentration of compound required to reduce the increase in cAMP concentration upon GPR65 activation by 50% (i.e. an IC50).
Human GPR65 Cyclic Adenosine Monophosphate (cAMP) Homogeneous Time Resolved Fluorescence (HTRF) Antagonist Assay Procedure
IC50 data was obtained by the following procedure:
1321N1 human astrocytoma cells stably expressing human recombinant GPR65 (1321N1-hrGPR65 cells, EuroscreenFast) were cultured according to the vendor's instructions.
Compounds were tested for their ability to antagonise GPR65, through measuring the concentration of cytoplasmic cAMP following treatment of the cells at a pH of 7.2 to activate GPR65 signalling and addition of the compound to be tested. The extent to which the expected rise in cAMP concentration upon GPR65 activation was suppressed by the added compound is indicative of its potency. The assay was carried out according to EuroscreenFast assay methodology as follows.
On the day of the assay, test compounds were added to 384-well, low volume, white microtiter plates by acoustic dispensing. KRH buffer (5 mM KCl, 1.25 mM MgSO4, 124 mM NaCl, 25 mM HEPES, 13.3 mM Glucose, 1.25 mM KH2PO4 and 1.45 mM CaCl2) was adjusted to pH 6.5, pH 7.6 and pH 8.4 by adding NaOH. 1321N1-hGPR65 cells were rapidly thawed and diluted in KRH, pH 7.6 prior to centrifugation at 300×g for 5 min and resuspension in assay buffer (KRH, pH 7.6, supplemented with 1 mM 3-isobutyl-1-methylxanthine (IBMX) and 200 μM ethylenediaminetetraacetic acid (EDTA)). Cells were added to assay plates at a density of 2,000 cells per well in a volume of 5 μl. Assay plates were briefly centrifuged at 100×g and then incubated at room temperature for 30 min. Cells were stimulated by the addition of 5 μL KRH, pH 6.5, to achieve an assay pH of 7.2, while control wells received 5 μl KRH, pH 8.4 to achieve an assay pH of 7.9. Assay plates were briefly centrifuged at 100×g and then incubated at room temperature for 30 min.
Accumulation of cAMP was detected by cAMP HTRF kit (Cisbio). d2-labeled cAMP and cryptate-labeled anti-cAMP antibody in Lysis and Detection Buffer (Cisbio) were added to assay plates, and the plates were incubated at room temperature for 1 h. HTRF measurements were performed using a Pherastar FSX instrument. Acceptor and donor emission signals were measured at 665 nm and 620 nm, respectively, and HTRF ratios were calculated as signal665 nm/signal620 nm×104. Data were normalised to high and low control values and fitted with 4-parameter logistic regression to determine hGPR65 IC50 values for the test compounds, which are shown in Table 1.
On the technique in general: TR-FRET usually uses a lanthanide donor and a delayed reading to cut background.

[1] abbreviates: 1321N1-hrGPR65 cells, assay pH 7.2, cAMP HTRF, read-out: hGPR65 IC50 (activity class).

Turning to `Nc1ccc2c(c1)CC1CCC2N1C(=O)Nc1ccc(Cl)c(Cl)c1` (racemic) [Compound 73, (±)-2-Amino-N-(3,4-dichlorophenyl)-6,7,8,9-tetrahydro-5H-5,8-epiminobenzo[7]annulene-10-carboxamide], under setting [1], the IC50 – broadly, the concentration at which inhibition is half-maximal – was over 5000 nM. Consider `O=C(Nc1ccc(Cl)c(Cl)c1)N1C2CCC1c1ccc(F)cc1C2` (racemic) [Compound 74, (±)-N-(3,4-Dichlorophenyl)-2-fluoro-6,7,8,9-tetrahydro-5H-5,8-epiminobenzo[7]annulene-10-carboxamide], for which the IC50 was under 500 nM. For `O=C(Nc1ccc(C(F)(F)F)c(Cl)c1)N1C2CCC1c1ccc(F)cc1C2` (racemic) [Compound 75, (±)-N-(3-Chloro-4-(trifluoromethyl)phenyl)-2-fluoro-6,7,8,9-tetrahydro-5H-5,8-epiminobenzo[7]annulene-10-carboxamide], the IC50 was under 500 nM. With `O=C(Nc1ccc(Cl)c(Cl)c1)N1C2CCC1c1c[nH]c(=O)cc1C2` (racemic) [Compound 76, (±)-N-(3,4-Dichlorophenyl)-3-oxo-3,5,6,7,8,9-hexahydro-2H-6,9-epiminocyclohepta[c]pyridine-10-carboxamide], the IC50 was under 500 nM. Still for that read-out and setting: the result for `O=C(Nc1ccc(Cl)c(Cl)c1)N1C2CCC1c1ccnc(Cl)c1C2` (racemic) [Compound 77, (±)-1-Chloro-N-(3,4-dichlorophenyl)-6,7,8,9-tetrahydro-5H-5,8-epiminocyclohepta[c]pyridine-10-carboxamide] reads under 500 nM.

As for `O=C(Nc1ccc(Cl)c(Cl)c1)N1C2CCC1c1cc(F)ccc1C2` (racemic) [Compound 80, (±)-N-(3,4-Dichlorophenyl)-3-fluoro-6,7,8,9-tetrahydro-5H-5,8-epiminobenzo[7]annulene-10-carboxamide], the IC50 under setting [1] was in the range of 500 to 5000 nM. Take `O=C(Nc1ccc(C(F)(F)F)c(Cl)c1)N1C2CCC1c1cc(F)ccc1C2` (racemic) [Compound 81, (±)-N-(3-Chloro-4-(trifluoromethyl)phenyl)-3-fluoro-6,7,8,9-tetrahydro-5H-5,8-epiminobenzo[7]annulene-10-carboxamide]: the IC50 under setting [1] was 500 to 5000 nM. Turning to `CC(C)(C)OC(=O)Nc1nccc2c1C1CCC(C2)N1C(=O)Nc1ccc(Cl)c(Cl)c1` (racemic) [Compound 82, tert-butyl ((±)-10-((3,4-dichlorophenyl)carbamoyl)-6,7,8,9-tetrahydro-5H-6,9-epiminocyclohepta[c]pyridin-1-yl)carbamate], the half-inhibitory concentration (IC50) under setting [1] is 500 to 5000 nM. On to `O=C(Nc1ccc(Cl)c(Cl)c1)N1C2CCC1c1cccc(F)c1C2` (racemic) [Compound 83, (±)-N-(3,4-Dichlorophenyl)-1-fluoro-6,7,8,9-tetrahydro-5H-5,8-epiminobenzo[7]annulene-10-carboxamide], for which the IC50 under setting [1] fell in the range of 500 to 5000 nM. The same measure, in the same setting: then `O=C(Nc1ccc(C(F)(F)F)c(Cl)c1)N1C2CCC1c1cccc(F)c1C2` (racemic) [Compound 84, (±)-N-(3-Chloro-4-(trifluoromethyl)phenyl)-1-fluoro-6,7,8,9-tetrahydro-5H-5,8-epiminobenzo[7]annulene-10-carboxamide], with 500 to 5000 nM; and `O=C(Nc1ccc(Cl)c(Cl)c1)N1C2CCC1c1cccnc1C2` (racemic) [Compound 87, (±)-N-(3,4-Dichlorophenyl)-6,7,8,9-tetrahydro-5H-5,8-epiminocyclohepta[b]pyridine-10-carboxamide], with over 5000 nM; and `O=C(Nc1ccc(Cl)c(Cl)c1)N1C2CCC1c1cncc(F)c1C2` (racemic) [Compound 95, (±)-N-(3,4-Dichlorophenyl)-4-fluoro-6,7,8,9-tetrahydro-5H-6.9-epiminocyclohepta[c]pyridine-10-carboxamide], with 500 to 5000 nM.

As for `O=C(Nc1ccc(Cl)c(Cl)c1)N1C2CCC1c1cnc(Br)cc1C2` (racemic) [Compound 99, (±)-3-Bromo-N-(3,4-dichlorophenyl)-6,7,8,9-tetrahydro-5H-6,9-epiminocyclohepta[c]pyridine-10-carboxamide], the IC50 under setting [1] is over 5000 nM. The same measure, in the same setting: the result for `O=C(Nc1ccc(Cl)c(Cl)c1)N1C2CCC1c1cnc(Cl)cc1C2` (racemic) [Compound 100, (±)-3-Chloro-N-(3,4-dichlorophenyl)-6,7,8,9-tetrahydro-5H-6,9-epiminocyclohepta[c]pyridine-10-carboxamide] reads 500 to 5000 nM.

For `O=C(Nc1ccc(Cl)c(Cl)c1)N1C2CCC1c1cnccc1C2` (racemic) [Compound 104, (±)-N-(3,4-Dichlorophenyl)-6,7,8,9-tetrahydro-5H-6,9-epiminocyclohepta[c]pyridine-10-carboxamide], the IC50 under setting [1] was 500 to 5000 nM.

For `O=C(Nc1ccc(Cl)c(Cl)c1)N1C2CCC1c1ccnc(F)c1C2` (racemic) [Compound 109, (±)-N-(3,4-Dichlorophenyl)-1-fluoro-6,7,8,9-tetrahydro-5H-5,8-epiminocyclohepta[c]pyridine-10-carboxamide], the IC50 was under 500 nM. For `O=C(Nc1ccc(Cl)c(Cl)c1)N1C2CCC1C(F)c1ncncc12` (racemic) [Compound 113, Cis-(±)-N-(3,4-Dichlorophenyl)-9-fluoro-6,7,8,9-tetrahydro-5H-5,8-epiminocyclohepta[d]pyrimidine-10-carboxamide], under setting [1], the IC50 fell in the range of 500 to 5000 nM.

Take `O=C(Nc1ccc(Cl)c(Cl)c1)N1C2CCC1C(F)c1ncncc12` (racemic) [Compound 114, trans-(±)-N-(3,4-Dichlorophenyl)-9-fluoro-6,7,8,9-tetrahydro-5H-5,8-epiminocyclohepta[d]pyrimidine-10-carboxamide]: the IC50 under setting [1] is 500 to 5000 nM. With `O=C(Nc1ccc(Cl)c(Cl)c1)N1C2CCC1c1cnc(F)c(F)c1C2` (racemic) [Compound 135, (±)-N-(3,4-Dichlorophenyl)-3,4-difluoro-6,7,8,9-tetrahydro-5H-6,9-epiminocyclohepta[c]pyridine-10-carboxamide], under setting [1], the IC50 is 500 to 5000 nM. Turning to `O=C(Nc1cc(Cl)c(C(F)(F)F)cc1F)N1C2CCC1c1cnc(F)c(F)c1C2` (racemic) [Compound 136, (±)-N-(5-Chloro-2-fluoro-4-(trifluoromethyl)phenyl)-3,4-difluoro-6,7,8,9-tetrahydro-5H-6,9-epiminocyclohepta[c]pyridine-10-carboxamide], the IC50 under setting [1] is 500 to 5000 nM. Same read-out and setting: the result for `O=C(Nc1cc(Cl)c(Cl)cc1F)N1C2CCC1c1cnc(F)c(F)c1C2` (racemic) [Compound 137, (±)-N-(4,5-Dichloro-2-fluorophenyl)-3,4-difluoro-6,7,8,9-tetrahydro-5H-6,9-epiminocyclohepta[c]pyridine-10-carboxamide] reads 500 to 5000 nM. For `O=C(Nc1cc(Cl)c(C(F)(F)F)cc1F)N1C2CCC1c1c[nH]c(=O)c(F)c1C2` (racemic) [Compound 138, (±)-N-(5-Chloro-2-fluoro-4-(trifluoromethyl)phenyl)-4-fluoro-3-oxo-3,5,6,7,8,9-hexahydro-2H-6,9-epiminocyclohepta[c]pyridine-10-carboxamide], the IC50 was under 500 nM. Consider `O=C(Nc1cc(Cl)c(Cl)cc1F)N1C2CCC1c1c[nH]c(=O)c(F)c1C2` (racemic) [Compound 139, (±)-N-(4,5-Dichloro-2-fluorophenyl)-4-fluoro-3-oxo-3,5,6,7,8,9-hexahydro-2H-6,9-epiminocycloheptan[c]pyridine-10-carboxamide], for which the IC50 is under 500 nM.
